Measurements: ChEMBL document CHEMBL1201862, “PubChem BioAssay data set” (2004)
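Where inhibition never reached the appropriate level, the endpoint shown equals the highest concentration tested. Otherwise, values were interpolated linearly from a five-concentration, 48-hour dose response in 96-well plates. GI50: concentration for 50% inhibition of growth.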 Activity calls are given as the source filed them. Cut-off read from the data, not from the text of the source: active = GI50 up to about 1.1 µM and inactive = higher.

Legend:
Experiment in all cases: inhibition of tumour cell growth, NCI panel, 48 h
A498 = test system: A498
CCRF-CEM = test system: CCRF-CEM
HCT-15 = test system: HCT-15
HOP-62 = test system: HOP-62
HOP-92 = test system: HOP-92
HT-29 = test system: HT-29
K562 = test system: K562
KM12 = test system: KM12
MDA-MB-231 = test system: MDA-MB-231
MDA-MB-435 = test system: MDA-MB-435
OVCAR-3 = test system: OVCAR-3
SF-268 = test system: SF-268
SF-295 = test system: SF-295
SF-539 = test system: SF-539
SNB-19 = test system: SNB-19
SW-620 = test system: SW-620
TK-10 = test system: TK-10
U-251 = test system: U-251
UACC-257 = test system: UACC-257

SMILES | GI50 (A498) | GI50 (CCRF-CEM) | GI50 (HCT-15) [µM] | GI50 (HOP-62) | GI50 (HOP-92) | GI50 (HT-29) | GI50 (K562) | GI50 (KM12) | GI50 (MDA-MB-231) | GI50 (MDA-MB-435) | GI50 (OVCAR-3) | GI50 (SF-268) | GI50 (SF-295) | GI50 (SF-539) | GI50 (SNB-19) | GI50 (SW-620) | GI50 (TK-10) | GI50 (U-251) | GI50 (UACC-257)
COC(=O)[C@H](CC(C)C)NC1=C(Cl)C(=O)c2c(O)ccc(O)c2C1=O | > 10 µM (inactive) | 4.31 µM (inactive) | 3.05 | > 10 µM (inactive) | > 10 µM (inactive) | 3.01 µM (inactive) | > 10 µM (inactive) | 6.43 µM (inactive) | > 10 µM (inactive) | 8.89 µM (inactive) | 1.73 µM (inactive) | > 10 µM (inactive) | > 10 µM (inactive) | 9.02 µM (inactive) | > 10 µM (inactive) | 9.64 µM (inactive) | > 10 µM (inactive) | > 10 µM (inactive) | > 10 µM (inactive)
CCOC(=O)c1ccc2c(c1)Cc1cc([N+](=O)[O-])ccc1-2 | 28.4 µM (inactive) | 61.2 µM (inactive) | 57.8 | > 100 µM (inactive) | 26.1 µM (inactive) | 27.1 µM (inactive) | 55 µM (inactive) | 69.3 µM (inactive) | 32.3 µM (inactive) | 43.1 µM (inactive) | 46.6 µM (inactive) | 24 µM (inactive) | 23.1 µM (inactive) | 36.1 µM (inactive) | > 100 µM (inactive) | 65.2 µM (inactive) | 24.4 µM (inactive) | 39.4 µM (inactive) | 48.1 µM (inactive)
CC(C)C(C/C=C1/CC(CO)(COC(=O)C(C)(C)C)OC1=O)C(C)C (centres undefined) | 7.67 µM (inactive) | 12.1 µM (inactive) | 16.9 | 1.03 µM (active) | 10.4 µM (inactive) | 16.7 µM (inactive) | 0.171 µM (active) | 13.8 µM (inactive) | 3.25 µM (inactive) | 8.59 µM (inactive) | 15.6 µM (inactive) | 10.8 µM (inactive) | 2.61 µM (inactive) | 0.598 µM (active) | 12.9 µM (inactive) | 3.31 µM (inactive) | 3.72 µM (inactive) | 12.6 µM (inactive) | 16.8 µM (inactive)
N#Cc1ccc(OC(=O)c2ccc(NC(=N)N)cc2)cc1.c1ccncc1 | > 100 µM (inactive) | 22.2 µM (inactive) | 46.9 | > 100 µM (inactive) | 93.5 µM (inactive) | 53.7 µM (inactive) | 42 µM (inactive) | 57 µM (inactive) | > 100 µM (inactive) | 67.8 µM (inactive) | 30.1 µM (inactive) | 51.1 µM (inactive) | > 100 µM (inactive) | 73.6 µM (inactive) | 56.2 µM (inactive) | 35.5 µM (inactive) | > 100 µM (inactive) | 61.2 µM (inactive) | > 100 µM (inactive)
O=C1Nc2ccccc2/C1=N/NC(=S)Nc1ccc(Cl)cc1 | 18.3 µM (inactive) | 22.8 µM (inactive) | 20.2 | 34.8 µM (inactive) | 51.4 µM (inactive) | 41 µM (inactive) | 29.9 µM (inactive) | 5.77 µM (inactive) | 26.7 µM (inactive) | 39.8 µM (inactive) | 25.8 µM (inactive) | 31.6 µM (inactive) | 23.7 µM (inactive) | 29.2 µM (inactive) | 41.8 µM (inactive) | 29.4 µM (inactive) | 16.1 µM (inactive) | 23.2 µM (inactive) | 15.2 µM (inactive)
O=C1N[C@@H]2c3c(csc3Br)C(=O)[C@@H]2O1 | > 100 µM (inactive) | 15 µM (inactive) | 31.5 | 53.2 µM (inactive) | 20.8 µM (inactive) | 38.5 µM (inactive) | 21.5 µM (inactive) | 47 µM (inactive) | 43.7 µM (inactive) | 19.9 µM (inactive) | 20.7 µM (inactive) | 27 µM (inactive) | 59.2 µM (inactive) | 33.5 µM (inactive) | 94 µM (inactive) | 20.2 µM (inactive) | 27.4 µM (inactive) | 24.2 µM (inactive) | 22.4 µM (inactive)
